Results reported in patent publication US20050075269A1, “Substituted benzofuran-2-carboxamides derivatives” (priority 2001, published 2005).
Counter-ions that a name gives are not always drawn.

melting point: > 233 °C
SMILES: CNCCNC(=O)c1cc2cc(N3CCN(CCCCc4c[nH]c5ccc(C#N)cc45)CC3)ccc2o1 (as salt: hydrochloride) [f), N-(2-methylaminoethyl)-5-{4-[4-(5-cyano-1H-indol-3-yl)butyl]piperazin-1-yl}benzofuran-2-carboxamide]
